These results are taken from publication PMC12340957, “Interactions between Lipopolysaccharide and Peptide Bacteriocin BacSp222 Influence Their Biological Activities” (ACS Infectious Diseases, 2025).

Series [1] relates to proenzyme Factor C from amebocyte lysate. The series is described as follows: Residual LPS activity, amebocyte lysate test (Pierce Chromogenic Endotoxin Quant Kit). The note with it: 4 μg BacSp222 preincubated with 3 pg LPS O111:B4 standard, 15 min, 37 °C, 60 μL PBS; 405 nm; mean n = 3. It is filed as biochemical. As to the method:
The separate and independent assay used to determine the reduction of the LPS biological potential after incubation with BacSp222 was a test. Briefly, this approach utilizes the ability of endotoxin to activate a proenzyme Factor C from amebocyte lysate and allows for spectrophotometric measurement of the released active enzyme using a chromogenic synthetic peptide substrate. Due to high specificity and sensitivity, this assay is widely used to detect trace amounts of LPS. As presented in Figure , preincubation of LPS with a large excess of BacSp222 reduced LPS activity by ca. 50%.
The residual biological activity of LPS after preincubation with BacSp222 was evaluated by using a commercial assay kit. The reaction was performed for 4 μg of BacSp222, which was preincubated with 3 pg of LPS O111:B4 standard for 15 min at 37 °C in a final volume of 60 μL of PBS without Ca^2+ and Mg^2+. Simultaneously and independently, the same quantity of BacSp222 and LPS as above was preincubated separately as controls. After preincubation, the residual biological activity of endotoxin in all samples was determined using a spectrophotometric Pierce Chromogenic Endotoxin Quant Kit (Thermo, Waltham, MA, USA). The absorbance was measured at 405 nm using a microplate reader Synergy H1 Hybrid plate reader controlled by Gene5 version 2.00.18 software (BIOTEK Instruments, Winooski, VT, USA).

The nature of series [2]: Dynamic light scattering, hydrodynamic radius. The conditions noted are these: BacSp222 alone at 5, 50, 500 μg/mL, DLS, PBS, 37 °C. It is filed as physicochemical. The procedure: For dynamic light scattering experiments, (1) the solution of PBS without Ca^2+ and Mg^2+ or PBS without Ca^2+ and Mg^2+ with (2) 50 μg/mL LPS O55:B5 (IEC), (3) 50 μg/mL LPS O111:B4 (IEC), (4) BacSp222 at concentration 5, 50, and 500 μg/mL, or (5) 50 μg/mL LPS O55/B5 (IEC) + BacSp222 at concentration 5, 50, and 500 μg/mL were incubated for 15 min at 37 °C. Then, the hydrodynamic radius of the LPS and BacSp222 molecules, as well as LPS-BacSp222 complexes, was determined by dynamic light scattering (DLS) on the Prometheus Panta apparatus (NanoTemper, Munich, Germany). Prometheus Standard Capillaries (NanoTemper, Munich, Germany) were used in the experiments, and the measurements were taken at 37 °C. The results were processed by the instrument software (Prometheus Panta Software).

A further series concerns hemolymph phenoloxidase. The series is described as follows: Hemolymph phenoloxidase (PO) activation in larvae. It is filed as in vivo, greater wax moth. The conditions noted are these: for PO activity after BacSp222 alone: 5 μL injection. As to the method: The experiments were based on a previously published protocol. The greater wax moth was reared in the dark on honeybee nest debris at 28 °C and 70% humidity. Last instar larvae were used for the experiments. To test the activation of the phenoloxidase (PO) system by LPS, larvae were divided into groups of 10 insects. One group was injected with PBS buffer without Ca^2+ and Mg^2+, the other one with 1 μg of LPS O55:B5 (IEC) diluted in PBS, and the next one with the mixture of 1 μg of LPS and BacSp222 at concentrations 3, 6, or 30 μM. The last group was treated with the bacteriocin alone at the same concentrations. Before injection, all prepared solutions were preincubated for 30 min at 30 °C for possible complex formation, while the puncture surface of each larva was disinfected with 70% ethanol. Injection was done in the last but one proleg by a Hamilton syringe at a volume of 5 μL. After injection, the larvae were placed in Petri dishes on sterile filter paper. Bleeding larvae were excluded from the experiment. […]
The assay was performed similarly to the previous papers. , The hemolymph was diluted 5 times in apyrogenic water, and 2 μL of this dilution was added to 18 μL of buffer A (50 mM Tris–HCl pH 7.4, 150 mM NaCl, 5 mM CaCl2) in a 96-well plate. After 20 min of preincubation at room temperature, 180 μL of a 2 mM solution of 3,4-dihydroxy- L -phenylalanine (L-DOPA) in buffer B (50 mM Na2HPO4, 50 mM NaH2PO4; pH 6.5) was added, and then, the absorbance at 490 nm was measured immediately (time 0) at the indicated time-points. […]
All experiments were conducted three times independently, except for the DLS and ITC measurements, which were performed once and twice, respectively. […] For experiments concerning measurements of TNF, NO, cellular metabolic activity, TLRs activation, and LAL assay, the statistical significance of differences between the particular result and control was calculated using a two-way ANOVA with Tukey’s multiple comparison test as a posthoc test and shown in figures as asterisks *, **, or ***, indicating p < 0.05, p < 0.01, and p < 0.001, respectively. […]

The next series has as its system FPR1. On the set-up: method as in number not given. The conditions noted are these: ref number not given; cited from earlier work.
For a further series, the system named is Gram-negative. The note with it: ref number not given; cited from earlier work. From the text: The present study sheds more light on the multiple biological activities of BacSp222 and further makes the image of this peptide even more complex.

Ends that are not written are not given here. * marks the point of attachment. For = O=C*

Regarding “For-MAGLLRFLLSKGRALYNWAKSHVGKVWEWLKSGATYEQIKEWIENALGWR [BacSp222]”, the “reduction of LPS activity” value in series [1] was “ca. 50%”. The oligomerization in solution result in series [2] is “has a tendency to oligomerize in solutions”. The “PO activity after BacSp222 alone” value with hemolymph phenoloxidase (3 μM BacSp222 alone (printed "bacteriocin alone")) is recorded as “PO activity at a similar level as the injection of PBS buffer”; in the series with hemolymph phenoloxidase (6 μM BacSp222 alone) it was “induced PO activity”. For the same substance, the “inhibition of LPS-induced PO activation” value with hemolymph phenoloxidase (3 μM BacSp222 preincubated (30 min, 30 °C) and coinjected with 1 μg LPS O55:B5 (IEC), n = 3, printed "inhibited ... to about 50%") is listed as “about 50%”. For the same substance, the “activation of FPR1” value with FPR1 is on record as “cannot activate”. In the series on Gram-negative, the “activity against Gram-negative bacteria” value is “inactive against Gram-negative ones”.
